Test results as given in patent US20240199455A1, “REMOVAL OF TOXIC OXYANIONS BY CO-CRYSTALLIZATION WITH SULFATE” (UT-Battelle, LLC, priority 2022, published 2024).

Assays:
[1] = Crystallization at constant 2.5 mM sulfate and decreasing selenate (2.5 mM to 2.5 μM); conditions: 2.5 mM sulfate
Experimental: (§1) In a typical experiment, BIG chloride was added to wastewater containing sulfate, selenate, and/or selenite anions, and immediately upon addition, a white precipitate formed. The resulting suspensions were mixed for 24 h using a rotator set at 60 rpm inside an incubator set to 25 C. The samples were then removed and centrifuged for 10 min at 3000 rpm to separate the aqueous and solid phases. In the field, the suspended solids were filtered through a filter press. A 1 mL aliquot was then removed from each sample and passed through a 0.02 μm syringe filter to ensure any suspended solid was removed from the filtrate prior to diluting the samples in 2% HNO3 for ICP-MS analysis. To recover the BIG ligand, 2.1 equiv. of NaOH (or adjusted to a pH of 11) was added to a suspension of the BIG-oxyanion salts in a 15 mL polypropylene centrifuge tube. The suspension was mixed for 24 h at 60 rpm. The suspended BIG neutral solid was filtered from the supernatant solutions containing the oxyanions dissolved as soluble sodium salts. The BIG chloride salts were then regenerated by the addition of 0.1 M HCl to the neutral ligands. This process is depicted schematically in FIG. 5.
Crystallization experiments were carried out keeping sulfate at a constant concentration and decreasing the selenate concentration while maintaining constant ionic strength to mimic wastewater conditions. These experiments were carried out at 1 and 2 molar equivalents of BBIG or PyBIG. […] At lower selenate concentrations of 250, 25, and 2.5 μM, there is no discernible preference between the oxyanions. […] At the lowest concentration of selenate, the amount remaining in solution after crystallization is below the limit of detection of 0.02 ppb Se. The same trend is observed for PyBIG, with near quantitative removal of both sulfate and selenate.

[2] = Cocrystallization from simulated Bull Run groundwater
Experimental: as §1
The efficacies of sulfate and selenate removal with BBIG and PyBIG ligands were next tested with simulated wastewater to determine if the EPA's 5 ppb discharge limit was achievable. The initial concentrations of sulfate and selenate in the simulated wastewater were based on typical values found in groundwaters monitored at the Bull Run steam plant of Tennessee Valley Authority (TVA). The simulated Bull Run groundwater contained an 8985-fold excess concentration of sulfate relative to selenate, with sulfate and selenate concentrations of 5.84±0.11 mM and 0.65±0.07 μM, respectively. Cocrystallization studies were performed with 1 and 2 mol equiv of BBIG or PyBIG. […] On the other hand, selenate removal was near quantitative with 2 equiv of BBIG (FIG. 4a).

[3] = Cocrystallization from equimolar sulfate/selenate mixture (2.5 mM each); conditions: for selenate removal / sulfate removal: 2.5 mM sulfate + 2.5 mM selenate; for ratio of sulfate to selenate % removal: equimolar mixture
Experimental: as §1
Concomitant crystallization of sulfate and selenate with either BBIG or PyBIG led to near quantitative removal of both oxyanions from equimolar aqueous mixtures. Cocrystallization experiments were carried out keeping the concentration of sulfate and selenate at near equimolar concentrations of 2.5 mM, while the BIG concentrations were increased gradually from 5 to 50 mM. […] At higher BBIG concentrations, the oxyanion removal remained near quantitative. Referring to the ratio of sulfate to selenate % removal, a ratio of 1.0 indicates there is no preference for sulfate over selenate. […] At relative ligand concentrations higher than 1 equivalent of BBIG, the ratio of removal efficiencies approaches 1, indicating no preference between the two oxyanions by crystallization under these conditions.
PyDIG also quantitatively removed sulfate and selenate at higher BIG concentrations. […] Increasing the PyBIG concentration achieved a ratio of approximately 1, indicating no discrimination between sulfate and selenate with excess PyBIG. With both BBIG and PyBIG, it appears the 2:1 BIG:oxyanions ratio is ideal for effectively removing SO4^2− and SeO4^2− anions from solution with minimal excess of the BIG ligands.

[4] = Cocrystallization from simulated Bull Run leachate
Experimental: as §1
A more concentrated simulated wastewater solution based on Bull Run's leachate water that has leached from fly ash beds was also tested with BBIG and PyBIG. The concentrations of sulfate and selenate in the simulated leachate were 48.49±0.7 mM and 2.37±0.16 μM, respectively, with sulfate concentration being 20,460 times higher than that of selenate. In the case of BBIG, 1 equiv removed 96.3% and 95.4% sulfate and selenate, respectively, while 2 equiv removed sulfate and selenate near quantitatively at 99.90% and 99.94%, respectively, with a final Se concentration of 8.59±0.62 ppb (1 equiv) and 0.20±0.01 ppb (2 equiv). In the case of PyBIG, 89.2% and 85.5% sulfate and selenate, respectively, were removed with 1 equiv, and 99.98% and 99.99%, respectively with 2 equiv. The final Se concentrations after cocrystallization with PyBIG were 27.23±0.92 ppb (1 equiv) and 0.02±0.01 ppb (2 equiv), reaching the limit of detection. […] In fact, the large excess of sulfate present in the wastewaters appears to help remove trace amounts of selenate by cocrystallization with BBIG or PyBIG, down to sub-ppb levels of Se.

[5] = Crystallization of individual oxyanion (5 mM) with BIG chloride, ICP-MS of filtrate; conditions: for selenate removal efficiency: 5 mM selenate alone; for sulfate removal efficiency: 5 mM sulfate alone
Experimental: as §1
Crystallization studies with BBIG and individual sulfate, selenate, or selenite anions (5 mM) were performed, while the concentration of BIGs was increased from one to ten molar equivalents. […] On the other hand, only approximately half (53.0%, FIG. 2a) of the selenite was removed from the solution with 1 equivalent of BBIG, which can be attributed to its propensity to form HScO3^−, by deprotonating BBIG in the process. […] Once again, selenite was removed to a lesser extent (70.7%) with 1 equivalent of PyBIG (FIG. 2b).

[6] = simulated groundwater (5.84 mM sulfate, 0.65 μM selenate), 1 equiv BIG
[7] = simulated groundwater, 2 equiv BIG
[8] = 1 molar equivalent BIG relative to total oxyanion
[9] = BIG increased to 2 equivalents (PyBIG: increased concentration, plateau after 2 equivalents)
[10] = simulated leachate (48.49 mM sulfate, 2.37 μM selenate), 1 equiv BIG
[11] = simulated leachate, 2 equiv BIG
[12] = BIG at twice the oxyanion concentration (10 mM)

For `N=C(N)N/N=C/c1cccc(/C=N/NC(=N)N)n1` [PyBIG, pyridinedialdehydebis(iminoguanidinium)], the selenate removal ([1]; 1 equiv BIG) was 75.6%, the sulfate removal ([1]; 1 equiv BIG) was 82.3% and the selenate removal ([1]; 2 equiv BIG) was > 99.7%. The sulfate removal ([1]; 2 equiv BIG) was > 99.7%, the selenate removal [2, 6] was 81.6% and the sulfate removal [2, 6] was 88.5%. The “final Se concentration” value ([2]; simulated groundwater, 1 equiv BIG) was 9.39±0.34 ppb, the “final Se concentration” value [2, 7] was 0.02±0.01 ppb and the selenate removal [2, 7] was 99.96%. It also gave a sulfate removal [2, 7] of 99.94%, a selenate removal [3, 8] of 75.6% and a sulfate removal [3, 8] of 82.3%. The selenate removal [3, 9] was 99.7%, the sulfate removal [3, 9] was 97.8% and the “ratio of sulfate to selenate % removal” value ([3]; 1 equivalent BIG, 1.0 = no preference) was 0.84. The “ratio of sulfate to selenate % removal” value ([3]; more than 1 equivalent (excess) BIG) was “approximately 1”, the sulfate-to-selenate removal ratio ([4]; simulated groundwater and leachate) was “approximately one” and the selenate removal [4, 10] was 85.5%. The sulfate removal [4, 10] was 89.2%, the “final Se concentration” value ([4]; simulated leachate, 1 equiv BIG) was 27.23±0.92 ppb and the “final Se concentration” value [4, 11] was 0.02±0.01 ppb. The selenate removal [4, 11] was 99.99%, the sulfate removal [4, 11] was 99.98% and the selenate removal efficiency ([5]; 5 mM (1 equiv) BIG) was 93.9%. It also gave a selenate removal efficiency [5, 12] of 99.8%, a selenite removal efficiency ([5]; 5 mM selenite alone, 1 equivalent BIG) of 70.7% and a sulfate removal efficiency ([5]; 5 mM (1 equiv) BIG, 24 h, 25 C) of 95.0%. The sulfate removal efficiency [5, 12] was 99.9%.
